Measurements from patent US20250176550A1, “HERBICIDE COMPOSITION OF URACIL COMPOUND CONTAINING CARBOXYLATE FRAGMENT AND THE USE THEREOF” (Jiangsu Flag Chemical Industry Co., Ltd., priority 2022, published 2025).

What was measured:
Assay in all cases: Indoor virulence and combined effect, greenhouse pot test, post-emergence stem and leaf spray, fresh weight inhibition
Type in all cases: in vivo
alopecurus japonicus = tested on: alopecurus japonicus
Outline: (§1)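 Weeds in greenhouse pots received a spray-tower treatment, either post-emergence at the 3–4 leaf (grasses) or 4–6 leaf (broadleaf) stage, or pre-emergence as a soil spray 24 h after sowing. Compounds were applied in acetone diluted with 0.1 wt% Tween-80 water, alone or mixed, in g/ha. Fresh weight inhibition was measured at 21 days, with synergy judged by Gowing expected efficacy (E−E0 >10%).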

lolium multiflorum = tested on: lolium multiflorum
Outline: as §1

digitaria sanguinalis = conditions: for Fresh weight suppression rate %, A single agent: Table 14
Outline: as §1

eleusine indica = tested on: eleusine indica
Outline: as §1

echinochloa crusgalli = conditions: for Fresh weight suppression rate %, A single dose: Table 22
Outline: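 Greenhouse potted weeds sprayed post-emergence on stem and leaf at 3–4 leaf stage, with A and B alone or mixed; acetone solutions diluted in 0.1 wt% Tween-80, solvent-emulsifier water as blank.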

COCCOC(=O)C(C)(C)OC(=O)c1cc(-n2c(=O)cc(C(F)(F)F)n(C)c2=O)c(F)cc1Cl [Compound A-273]
Fresh weight inhibition rate %, A single agent (alopecurus japonicus; Table 5, 15 g a.i./ha, post-emergence, 21 days after treatment): 44.57% | Fresh weight inhibition rate %, A single agent (alopecurus japonicus; Table 5, 20 g a.i./ha, post-emergence, 21 days after treatment): 61.55% | Fresh weight inhibition rate %, A single agent (alopecurus japonicus; Table 5, 25 g a.i./ha, post-emergence, 21 days after treatment): 72.42% | Fresh weight inhibition rate %, A single agent (alopecurus japonicus; Table 25, A 15 g a.i./ha): 44.57% | Fresh weight inhibition rate %, A single agent (alopecurus japonicus; Table 25, A 20 g a.i./ha): 61.55% | Fresh weight inhibition rate %, A single agent (alopecurus japonicus; Table 25, A 25 g a.i./ha): 72.42% | Fresh weight inhibition rate %, A single agent (alopecurus japonicus; Table 25, A 30 g a.i./ha): 86.91% | Fresh weight inhibition rate %, A single agent (lolium multiflorum; Table 19, A 5 g a.i./ha): 22.25% | Fresh weight inhibition rate %, A single agent (lolium multiflorum; Table 19, A 10 g a.i./ha): 50.48% | Fresh weight inhibition rate %, A single agent (lolium multiflorum; Table 19, A 15 g a.i./ha): 55.50% | Fresh weight inhibition rate %, A single agent (lolium multiflorum; Table 19, A 20 g a.i./ha): 60.05% | Fresh weight inhibition rate %, A single agent (lolium multiflorum; Table 20, A 5 g a.i./ha): 22.25% | Fresh weight inhibition rate %, A single agent (lolium multiflorum; Table 20, A 10 g a.i./ha): 50.48% | Fresh weight inhibition rate %, A single agent (lolium multiflorum; Table 20, A 15 g a.i./ha): 55.50% | Fresh weight inhibition rate %, A single agent (lolium multiflorum; Table 20, A 20 g a.i./ha): 60.05% | Fresh weight inhibition rate %, A single agent (lolium multiflorum; Table 27, A 15 g a.i./ha): 55.5% | Fresh weight inhibition rate %, A single agent (lolium multiflorum; Table 27, A 20 g a.i./ha): 60.05% | Fresh weight inhibition rate %, A single agent (lolium multiflorum; Table 27, A 25 g a.i./ha): 77.30% | Fresh weight inhibition rate %, A single agent (digitaria sanguinalis; Table 1, 10 g a.i./ha, post-emergence, 21 days after treatment): 45.50% | Fresh weight inhibition rate %, A single agent (digitaria sanguinalis; Table 1, 12.5 g a.i./ha, post-emergence, 21 days after treatment): 55.30% | Fresh weight inhibition rate %, A single agent (digitaria sanguinalis; Table 1, 20 g a.i./ha, post-emergence, 21 days after treatment): 60.47% | Fresh weight inhibition rate %, A single agent (digitaria sanguinalis; Table 1, 25 g a.i./ha, post-emergence, 21 days after treatment): 62.48% | Fresh weight inhibition rate %, A single agent (digitaria sanguinalis; Table 13, A 20 g a.i./ha): 60.47% | Fresh weight inhibition rate %, A single agent (digitaria sanguinalis; Table 13, A 25 g a.i./ha): 62.48% | Fresh weight inhibition rate %, A single agent (digitaria sanguinalis; Table 13, A 30 g a.i./ha): 63.97% | Fresh weight suppression rate %, A single agent (digitaria sanguinalis; A 10 g a.i./ha): 31.16% | Fresh weight suppression rate %, A single agent (digitaria sanguinalis; A 15 g a.i./ha): 59.30% | Fresh weight suppression rate %, A single agent (digitaria sanguinalis; A 20 g a.i./ha): 60.47% | Fresh weight suppression rate %, A single agent (digitaria sanguinalis; A 30 g a.i./ha): 65.40% | Fresh weight inhibition rate %, A single agent (digitaria sanguinalis; Table 15, A 15 g a.i./ha): 59.3% | Fresh weight inhibition rate %, A single agent (digitaria sanguinalis; Table 15, A 20 g a.i./ha): 60.47% | Fresh weight inhibition rate %, A single agent (digitaria sanguinalis; Table 15, A 25 g a.i./ha): 62.48% | Fresh weight inhibition rate %, A single agent (digitaria sanguinalis; Table 16, A 10 g a.i./ha): 9.55% | Fresh weight inhibition rate %, A single agent (digitaria sanguinalis; Table 16, A 20 g a.i./ha): 45.07% | Fresh weight inhibition rate %, A single agent (digitaria sanguinalis; Table 16, A 25 g a.i./ha): 58.81% | Fresh weight inhibition rate %, A single agent (digitaria sanguinalis; Table 16, A 30 g a.i./ha): 60.30% | Fresh weight inhibition rate %, A single agent (digitaria sanguinalis; Table 41, A 10 g a.i./ha): 45.50% | Fresh weight inhibition rate %, A single agent (digitaria sanguinalis; Table 41, A 15 g a.i./ha): 59.30% | Fresh weight inhibition rate %, A single agent (digitaria sanguinalis; Table 41, A 20 g a.i./ha): 60.47% | Fresh weight inhibition rate %, A single agent (digitaria sanguinalis; Table 41, A 25 g a.i./ha): 62.48% | Fresh weight inhibition rate %, A single agent (eleusine indica; Table 18, A 5 g a.i./ha): 34.65% | Fresh weight inhibition rate %, A single agent (eleusine indica; Table 18, A 10 g a.i./ha): 43.34% | Fresh weight inhibition rate %, A single agent (eleusine indica; Table 18, A 15 g a.i./ha): 55.00% | Fresh weight inhibition rate %, A single agent (eleusine indica; Table 18, A 20 g a.i./ha): 68.03% | Fresh weight inhibition rate %, A single agent (eleusine indica; Table 32, A 15 g a.i./ha): 55.00% | Fresh weight inhibition rate %, A single agent (eleusine indica; Table 32, A 20 g a.i./ha): 68.03% | Fresh weight inhibition rate %, A single agent (eleusine indica; Table 32, A 25 g a.i./ha): 70.36% | Fresh weight inhibition rate %, A single agent (eleusine indica; Table 33, A 10 g a.i./ha): 43.34% | Fresh weight inhibition rate %, A single agent (eleusine indica; Table 33, A 15 g a.i./ha): 55.00% | Fresh weight inhibition rate %, A single agent (eleusine indica; Table 33, A 20 g a.i./ha): 68.03% | Fresh weight inhibition rate %, A single agent (eleusine indica; Table 33, A 25 g a.i./ha): 70.36% | Fresh weight inhibition rate %, A single agent (eleusine indica; Table 33, A 30 g a.i./ha): 75.35% | Fresh weight inhibition rate %, A single agent (eleusine indica; Table 35, A 10 g a.i./ha): 43.34% | Fresh weight inhibition rate %, A single agent (eleusine indica; Table 35, A 15 g a.i./ha): 55.00% | Fresh weight inhibition rate %, A single agent (eleusine indica; Table 35, A 20 g a.i./ha): 68.03% | Fresh weight inhibition rate %, A single agent (eleusine indica; Table 35, A 25 g a.i./ha): 70.36% | Fresh weight inhibition rate %, A single agent (eleusine indica; Table 36, A 5 g a.i./ha): 34.65% | Fresh weight inhibition rate %, A single agent (eleusine indica; Table 36, A 10 g a.i./ha): 43.34% | Fresh weight inhibition rate %, A single agent (eleusine indica; Table 36, A 15 g a.i./ha): 55.00% | Fresh weight inhibition rate %, A single agent (eleusine indica; Table 36, A 20 g a.i./ha): 68.03% | Fresh weight inhibition rate %, A single agent (eleusine indica; Table 36, A 25 g a.i./ha): 70.36% | Fresh weight inhibition rate %, A single agent (echinochloa crusgalli; Table 17, 15 g a.i./ha, post-emergence, 21 days after treatment): 30.04% | Fresh weight inhibition rate %, A single agent (echinochloa crusgalli; Table 17, 20 g a.i./ha, post-emergence, 21 days after treatment): 21.43% | Fresh weight inhibition rate %, A single agent (echinochloa crusgalli; Table 17, 25 g a.i./ha, post-emergence, 21 days after treatment): 19.41% | Fresh weight inhibition rate %, A single agent (echinochloa crusgalli; Table 37, A 10 g a.i./ha): 19.41% | Fresh weight inhibition rate %, A single agent (echinochloa crusgalli; Table 37, A 15 g a.i./ha): 21.43% | Fresh weight inhibition rate %, A single agent (echinochloa crusgalli; Table 37, A 20 g a.i./ha): 30.04% | Fresh weight inhibition rate %, A single agent (echinochloa crusgalli; Table 37, A 25 g a.i./ha): 38.28% | Fresh weight inhibition rate %, A single agent (echinochloa crusgalli; Table 44, A 10 g a.i./ha): 19.41% | Fresh weight inhibition rate %, A single agent (echinochloa crusgalli; Table 44, A 15 g a.i./ha): 21.43% | Fresh weight inhibition rate %, A single agent (echinochloa crusgalli; Table 44, A 20 g a.i./ha): 30.04% | Fresh weight inhibition rate %, A single agent (echinochloa crusgalli; Table 44, A 25 g a.i./ha): 38.28%

CCOC(=O)C(C)(C)OC(=O)c1cc(-n2c(=O)cc(C(F)(F)F)n(C)c2=O)c(F)cc1Cl [Compound A-250]
Fresh weight inhibition rate %, A single agent (alopecurus japonicus; Table 7, 15 g a.i./ha, post-emergence, 21 days after treatment): 39% | Fresh weight inhibition rate %, A single agent (alopecurus japonicus; Table 7, 20 g a.i./ha, post-emergence, 21 days after treatment): 49.17% | Fresh weight inhibition rate %, A single agent (alopecurus japonicus; Table 7, 25 g a.i./ha, post-emergence, 21 days after treatment): 55.39% | Fresh weight inhibition rate %, A single agent (lolium multiflorum; Table 34, A 15 g a.i./ha): 55.00% | Fresh weight inhibition rate %, A single agent (lolium multiflorum; Table 34, A 20 g a.i./ha): 68.03% | Fresh weight inhibition rate %, A single agent (lolium multiflorum; Table 34, A 25 g a.i./ha): 70.36% | Fresh weight inhibition rate %, A single agent (lolium multiflorum; Table 34, A 30 g a.i./ha): 75.35% | Fresh weight inhibition rate %, A single agent (lolium multiflorum; Table 38, A 10 g a.i./ha): 43.34% | Fresh weight inhibition rate %, A single agent (lolium multiflorum; Table 38, A 15 g a.i./ha): 55.00% | Fresh weight inhibition rate %, A single agent (lolium multiflorum; Table 38, A 20 g a.i./ha): 68.03% | Fresh weight inhibition rate %, A single agent (digitaria sanguinalis; Table 29, A 15 g a.i./ha): 54.46% | Fresh weight inhibition rate %, A single agent (digitaria sanguinalis; Table 29, A 20 g a.i./ha): 61.09% | Fresh weight inhibition rate %, A single agent (digitaria sanguinalis; Table 29, A 25 g a.i./ha): 65.86% | Fresh weight inhibition rate %, A single agent (digitaria sanguinalis; Table 29, A 30 g a.i./ha): 71.11% | Fresh weight inhibition rate %, A single agent (digitaria sanguinalis; Table 31, A 15 g a.i./ha): 54.46% | Fresh weight inhibition rate %, A single agent (digitaria sanguinalis; Table 31, A 20 g a.i./ha): 61.09% | Fresh weight inhibition rate %, A single agent (digitaria sanguinalis; Table 31, A 25 g a.i./ha): 65.86% | Fresh weight inhibition rate %, A single agent (eleusine indica; Table 30, A 10 g a.i./ha): 43.34% | Fresh weight inhibition rate %, A single agent (eleusine indica; Table 30, A 15 g a.i./ha): 55.00% | Fresh weight inhibition rate %, A single agent (eleusine indica; Table 30, A 20 g a.i./ha): 68.03% | Fresh weight inhibition rate %, A single agent (eleusine indica; Table 30, A 25 g a.i./ha): 70.36% | Fresh weight inhibition rate %, A single agent (eleusine indica; Table 30, A 30 g a.i./ha): 75.35% | Fresh weight inhibition rate %, A single agent (echinochloa crusgalli; Table 2, 15 g a.i./ha, post-emergence, 21 days after treatment): 26.41% | Fresh weight inhibition rate %, A single agent (echinochloa crusgalli; Table 2, 20 g a.i./ha, post-emergence, 21 days after treatment): 30.73% | Fresh weight inhibition rate %, A single agent (echinochloa crusgalli; Table 3, 20 g a.i./ha, post-emergence, 21 days after treatment): 30.73% | Fresh weight inhibition rate %, A single agent (echinochloa crusgalli; Table 3, 25 g a.i./ha, post-emergence, 21 days after treatment): 31.56% | Fresh weight inhibition rate %, A single agent (echinochloa crusgalli; Table 4, 15 g a.i./ha, post-emergence, 21 days after treatment): 26.41% | Fresh weight inhibition rate %, A single agent (echinochloa crusgalli; Table 4, 20 g a.i./ha, post-emergence, 21 days after treatment): 30.73% | Fresh weight inhibition rate %, A single agent (echinochloa crusgalli; Table 4, 25 g a.i./ha, post-emergence, 21 days after treatment): 31.56% | Fresh weight suppression rate %, A single dose (echinochloa crusgalli; A 10 g a.i./ha): 17.77% | Fresh weight suppression rate %, A single dose (echinochloa crusgalli; A 15 g a.i./ha): 26.41% | Fresh weight suppression rate %, A single dose (echinochloa crusgalli; A 20 g a.i./ha): 30.73% | Fresh weight suppression rate %, A single dose (echinochloa crusgalli; A 25 g a.i./ha): 31.56%
